Experimental data as given in PMC5343510 (Molecular pharmaceutics, 2016).
Values belong to the compound of their own block, whether it stands above or below them.

How the values were obtained:
[1] = test system: KB tumor xenografts (FR+); experiment: Ex vivo biodistribution in nude mice bearing KB tumor xenografts; conditions: 120 min p.i., ± SEM
[2] = target: FR (folate receptor) on KB cells (Homo sapiens, UniProt P15328); experiment: Relative binding affinity: inhibition of 3H-folate binding to cultured KB cells; conditions: read-out: mean IC50 (relative binding affinity, block of 3H-folic acid binding), 10 nM 3H-folate, 1 h, 37 °C
Sequence of FR (folate receptor) on KB cells (P15328 25-257): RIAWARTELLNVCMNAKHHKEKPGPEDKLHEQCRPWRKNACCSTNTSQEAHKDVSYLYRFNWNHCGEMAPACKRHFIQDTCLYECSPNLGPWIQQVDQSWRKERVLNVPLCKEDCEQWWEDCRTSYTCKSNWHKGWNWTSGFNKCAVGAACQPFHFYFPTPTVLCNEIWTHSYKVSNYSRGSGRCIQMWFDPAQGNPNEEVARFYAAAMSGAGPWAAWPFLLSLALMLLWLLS

SMILES: [NH-][C@@H](CNC(=O)CC[C@@H](NC(=O)c1ccc(NCc2cnc3nc(N)[nH]c(=O)c3n2)cc1)C(=O)O)C(=O)[N-][C@@H](CC(=O)O)C(=O)[N-][C@@H](C[S-])C(=O)O.[O]=[Tc+4] [^99mTc-EC20]
Biodistribution: Blood ([1]; Control): 0.3 ± 0.01 %ID/g | Biodistribution: Heart ([1]; Control): 1.9 ± 0.1 %ID/g | Biodistribution: KB Tumor ([1]; Control): 10.9 ± 0.6 %ID/g | Biodistribution: Kidney ([1]; Control): 113.0 ± 3.6 %ID/g | Biodistribution: Liver ([1]; Control): 4.1 ± 0.3 %ID/g | Biodistribution: Lung ([1]; Control): 2.1 ± 0.1 %ID/g | Biodistribution: Muscle ([1]; Control): 1.2 ± 0.04 %ID/g | Biodistribution: Plasma ([1]; Control): 0.5 ± 0.03 %ID/g | Biodistribution: Spleen ([1]; Control): 0.8 ± 0.1 %ID/g | KB Tumor/Blood ratio ([1]; Control): 41.5 ± 2.2 | KB Tumor/Kidney ratio ([1]; Control): 0.1 ± 0.01 | KB Tumor/Liver ratio ([1]; Control): 3.1 ± 0.3 | Biodistribution: Blood ([1]; FA Block (100 μg folic acid)): 0.3 ± 0.1 %ID/g | Biodistribution: Heart ([1]; FA Block (100 μg folic acid)): 0.1 ± 0.02 %ID/g | Biodistribution: KB Tumor ([1]; FA Block (100 μg folic acid)): 0.9 ± 0.1 %ID/g | Biodistribution: Kidney ([1]; FA Block (100 μg folic acid)): 6.7 ± 1.6 %ID/g | Biodistribution: Liver ([1]; FA Block (100 μg folic acid)): 2.5 ± 0.5 %ID/g | Biodistribution: Lung ([1]; FA Block (100 μg folic acid)): 0.8 ± 0.2 %ID/g | Biodistribution: Muscle ([1]; FA Block (100 μg folic acid)): 0.1 ± 0.02 %ID/g | Biodistribution: Plasma ([1]; FA Block (100 μg folic acid)): 0.5 ± 0.1 %ID/g | Biodistribution: Spleen ([1]; FA Block (100 μg folic acid)): 0.5 ± 0.2 %ID/g | KB Tumor/Blood ratio ([1]; FA Block (100 μg folic acid)): 2.9 ± 0.4 | KB Tumor/Kidney ratio ([1]; FA Block (100 μg folic acid)): 0.1 ± 0.02 | KB Tumor/Liver ratio ([1]; FA Block (100 μg folic acid)): 0.4 ± 0.1

IC50 [2]: 18.7 nM
SMILES: Nc1nc2ncc(CNc3ccc(C(=O)N[C@@H](CCC(=O)NCCOCCOCCNC(=O)CN4CCN(CC(=O)O)CCN(CC(=O)O)CC4)C(=O)O)cc3)nc2c(=O)[nH]1 [folate-NOTA]
